Laboratory results published in US11083725B2 (priority 2014, dated 2021).

System: NHBE cells
Test: Biolog metabolic array: substrate use by NHBE cells with or without CA09 infection
Type: cell-based, human
Conditions: for Substrate use, 590 nm absorbance normalized to zero hour, 1 hr: Biolog PMM2, 1 hr; for Substrate use, 590 nm absorbance normalized to zero hour, 5 hr: Biolog PMM2, 5 hr; for Substrate use, 590 nm absorbance normalized to zero hour, 7 hr: Biolog PMM2, 7 hr; for Substrate use, 590 nm absorbance normalized to zero hour, 0 hr: Biolog PMM2, 0 hr
[1] = Control (uninfected) NHBE cells
[2] = Virus (CA09-infected, MOI 1) NHBE cells
[3] = Virus: CA09-infected NHBE cells, MOI 1, Biolog PMM2
[4] = Virus (CA09, MOI 1) infected NHBE cells

Row | SMILES | 590 nm absorbance normalized to zero hour (substrate use), 1 hr [1] | 590 nm absorbance normalized to zero hour (substrate use), 2 hr [1] | 590 nm absorbance normalized to zero hour (substrate use), 3 hr [1] | 590 nm absorbance normalized to zero hour (substrate use), 4 hr [1] | 590 nm absorbance normalized to zero hour (substrate use), 6 hr [1] | 590 nm absorbance normalized to zero hour (substrate use), 8 hr [1] | 590 nm absorbance normalized to zero hour (substrate use), 9 hr [1] | 590 nm absorbance normalized to zero hour (substrate use), 10 hr [1] | 590 nm absorbance normalized to zero hour (substrate use), 11 hr [1] | Substrate use, 590 nm absorbance normalized to zero hour, 1 hr [1] | Substrate use, 590 nm absorbance normalized to zero hour, 5 hr [1] | Substrate use, 590 nm absorbance normalized to zero hour, 7 hr [1] | 590 nm absorbance normalized to zero hour (substrate use), 1 hr [2] | 590 nm absorbance normalized to zero hour (substrate use), 2 hr [2] | 590 nm absorbance normalized to zero hour (substrate use), 3 hr [2] | 590 nm absorbance normalized to zero hour (substrate use), 4 hr [2] | 590 nm absorbance normalized to zero hour (substrate use), 6 hr [2] | 590 nm absorbance normalized to zero hour (substrate use), 8 hr [2] | 590 nm absorbance normalized to zero hour (substrate use), 9 hr [2] | 590 nm absorbance normalized to zero hour (substrate use), 10 hr [2] | further results
1 | OC[C@H]1O[C@@H](O[C@@H]2[C@@H](CO)OC(O)(CO)[C@H]2O)[C@H](O)[C@@H](O)[C@H]1O (mixture of isomers) [Lactulose] | 1.71 | 2.30 | 2.70 | 2.88 | 3.78 | 4.04 | 4.27 | 4.46 | 5.14 | 1.71 | 3.40 | 3.82 | 1.68 | 2.24 | 2.56 | 2.71 | 3.31 | 3.70 | 4.05 | 4.25 | 590 nm absorbance normalized to zero hour (substrate use), 5 hr [2]: 3.13; 590 nm absorbance normalized to zero hour (substrate use), 7 hr [2]: 3.50; 590 nm absorbance normalized to zero hour (substrate use), 11 hr [2]: 4.63; 590 nm absorbance normalized to zero hour (substrate use), 1 hr [3]: 1.68; 590 nm absorbance normalized to zero hour (substrate use), 2 hr [3]: 2.24; 590 nm absorbance normalized to zero hour (substrate use), 3 hr [3]: 2.56; 590 nm absorbance normalized to zero hour (substrate use), 4 hr [3]: 2.71; 590 nm absorbance normalized to zero hour (substrate use), 5 hr [3]: 3.13; 590 nm absorbance normalized to zero hour (substrate use), 6 hr [3]: 3.31; 590 nm absorbance normalized to zero hour (substrate use), 7 hr [3]: 3.50; 590 nm absorbance normalized to zero hour (substrate use), 8 hr [3]: 3.70; 590 nm absorbance normalized to zero hour (substrate use), 9 hr [3]: 4.05; 590 nm absorbance normalized to zero hour (substrate use), 10 hr [3]: 4.25; 590 nm absorbance normalized to zero hour (substrate use), 11 hr [3]: 4.63
2 | O=P(O)(O)OC[C@H](O)CO (racemic) [D,L-a-Glycerol Phosphate] | 0.34 | 0.48 | 0.56 | 0.60 | 0.71 | 0.83 | 0.91 | 0.91 | 1.05 | 0.34 | 0.70 | 0.79 | 2.01 | 2.64 | 3.07 | 3.24 | 3.99 | 4.43 | 4.93 | 5.12 | 590 nm absorbance normalized to zero hour (substrate use), 0 hr [1]: 1.00; Substrate use, 590 nm absorbance normalized to zero hour, 0 hr [1]: 1.00; Substrate use, 590 nm absorbance normalized to zero hour, 0 hr [4]: 1.00; Substrate use, 590 nm absorbance normalized to zero hour, 1 hr [4]: 2.01; Substrate use, 590 nm absorbance normalized to zero hour, 5 hr [4]: 3.72; Substrate use, 590 nm absorbance normalized to zero hour, 7 hr [4]: 4.18; 590 nm absorbance normalized to zero hour (substrate use), 0 hr [2]: 1.00; 590 nm absorbance normalized to zero hour (substrate use), 11 hr [2]: 5.62
